Structures can show the parent of a compound that is named as a salt.
These molecules were tested on T1, 1N4R p-tau (assay: p-tau aggregation modulator screen of 1280-compound library (ThS fluorescence net change over 16 h)). Settings: not given.
T1 construct: made in house; host or cells: E. coli (PIMAX system)
Assay type: biochemical

Compound | ThS net change
CC(=O)O[C@H]1C[C@@H]2CC[C@@H]3[C@H](CC[C@@]4(C)[C@H]3C[C@H]([N+]3(C)CCCCC3)[C@@H]4OC(C)=O)[C@@]2(C)C[C@@H]1[N+]1(C)CCCCC1 [Pancuronium bromide] | 491
Clc1ccc2c(c1)CCc1cccnc1C2=C1CCNCC1 [Desloratadine] | 457
CC[N+]1(C)CCCC(OC(=O)C(O)(c2ccccc2)c2ccccc2)C1 (centres unmarked) [Pipenzolate bromide] | 395
c1ccc2c(c1)Nc1ccccc1S2 [Phenothiazine] | 421
NCCCC(O)(P(=O)(O)O)P(=O)(O)O [Alendronate sodium] | 381
O=C(O)COCCN1CCN(C(c2ccccc2)c2ccc(Cl)cc2)CC1 (centres unmarked) [Cetirizine dihydrochloride] | 373

Same assay, conditions: 30 µM compound, 6 µM p-tau, 16 h

Compound | effect on p-tau aggregation in pilot screen
CC/C(=C(\c1ccccc1)c1ccc(OCCN(C)C)cc1)c1ccccc1 [tamoxifen, reference compound] | none of them affected p-tau aggregation

Same assay, conditions: 1280-compound library screen; ThS fluorescence net change over 16 h

Compound | ThS net change
CC(C)NCC(O)COc1ccc(COCCOC(C)C)cc1 (centres unmarked) [Bisoprolol fumarate] | 409
CC(=O)Nc1c(I)c(C(=O)N[C@H]2C(O)O[C@H](CO)[C@@H](O)[C@@H]2O)c(I)c(N(C)C(C)=O)c1I (some centres unmarked) [Metrizamide] | 400
CN(C)CCOC(=O)C(c1ccccc1)C1(O)CCCC1 (centres unmarked) [Cyclopentolate hydrochloride] | 412
CC(C)(C)NCC(O)c1ccccc1Cl (centres unmarked) [Tulobuterol] | 398
CSc1ccc2c(c1)C(N1CCN(C)CC1)Cc1ccccc1S2.O=C(O)/C=C\C(=O)O (centres unmarked) [Methiothepin maleate] | 379
CC1(C)S[C@@H]2[C@H](NC(=O)[C@H](N)c3ccc(O)cc3)C(=O)N2[C@H]1C(=O)O [Amoxicillin] | 388
Cl.N=C(N)NC(=N)N1CCOCC1 [Moroxidine hydrochloride] | 379
Cc1ncc([N+](=O)[O-])n1CC(O)CCl (centres unmarked) [Ornidazole] | 383
CCN(CC)C(=O)Nc1ccc(OCC(O)CNC(C)(C)C)c(C(C)=O)c1 (centres unmarked) [Celiprolol HCl] | 396
CCCOc1cc(N)ccc1C(=O)OCCN(CC)CC [Propoxycaine hydrochloride] | 403
Cn1cc[nH]c1=S [Methimazole] | 393
COc1ccccc1OCC(O)COC(N)=O (centres unmarked) [Methocarbamol] | 409
Cc1cccc(C)c1OCC(C)N (centres unmarked) [Mexiletine hydrochloride] | 381
C[C@H]1[C@H](NC(=O)/C(=N\OC(C)(C)C(=O)O)c2csc(N)n2)C(=O)N1S(=O)(=O)O [Aztreonam] | 386
CC(C)NCC(O)COc1ccc(CC(N)=O)cc1 (stereo in doubt) [(R)-(+)-Atenolol] | 395
CCOC(=O)c1ccc(N)cc1 [Benzocaine] | 379
CCC(=O)O[C@]1(C(=O)CCl)[C@@H](C)C[C@H]2[C@@H]3CCC4=CC(=O)C=C[C@]4(C)[C@@]3(F)[C@@H](O)C[C@@]21C [Clobetasol propionate] | 409
CCCCc1cc2ccccc2c(OCCN(C)C)n1 [Dimethisoquin hydrochloride] | 394
CC1CNc2c(cccc2S(=O)(=O)N[C@@H](CCCNC(=N)N)C(=O)N2CC[C@@H](C)C[C@@H]2C(=O)O)C1 (some centres unmarked) [Argatroban] | 388

Same assay, conditions: 1280-compound library screen; […]

Compound | ThS net change
C[C@]12CC[C@H](O)C[C@H]1CC[C@@H]1[C@@H]2CC[C@]2(C)[C@@H](C3=CC(=O)OC3)CC[C@]12O [Digitoxigenin] | 383
COc1ccc(C(CN(C)C)C2(O)CCCCC2)cc1 (centres unmarked) [Venlafaxine] | 404
O=[N+]([O-])O[C@H]1CO[C@H]2[C@@H]1OC[C@H]2O[N+](=O)[O-] [Isosorbide dinitrate] | 405

Same assay, conditions: library screen, ThS fluorescence net change over 16 h with p-tau

Compound | ThS net change
CCN(CC)C(=O)/C(C#N)=C/c1cc(O)c(O)c([N+](=O)[O-])c1 [Entacapone] | 199
O=c1n(CCCN2CCN(c3cccc(Cl)c3)CC2)nc2ccccn12 [Trazodone hydrochloride] | 316
CSc1ccc2c(c1)N(CCC1CCCCN1C)c1ccccc1S2 (centres unmarked) [Thioridazine hydrochloride] | 252
C[C@H](N)[C@H](O)c1cccc(O)c1 [Metaraminol bitartrate] | 321

Same assay, conditions: p-tau aggregation modulator screen of 1280-compound library; ThS fluorescence net change

Compound | ThS net change
CN[C@@H]1[C@H](O[C@H]2[C@H](O[C@H]3[C@H](O)[C@@H](O)[C@H](NC(=N)N)[C@@H](O)[C@@H]3NC(=N)N)O[C@@H](C)[C@]2(O)CO)O[C@@H](CO)[C@H](O)[C@H]1O [Dihydrostreptomycin sulfate] | 331
CC[C@H]1OC(=O)[C@H](C)[C@@H](O[C@H]2C[C@@](C)(OC)[C@@H](O)[C@H](C)O2)[C@H](C)[C@@H](O[C@@H]2O[C@H](C)C[C@H](N(C)C)[C@H]2O)[C@](C)(O)C[C@@H](C)/C(=N\OCOCCOC)[C@H](C)[C@@H](O)[C@]1(C)O [Roxithromycin] | 366
Nc1ccc(O)c(C(=O)O)c1 [Mesalamine] | 363
Cc1ccc(C)c(OCCCC(C)(C)C(=O)O)c1 [Gemfibrozil] | 353
Fc1ccc(C(c2ccc(F)cc2)N2CCN(C/C=C/c3ccccc3)CC2)cc1 [Flunarizine dihydrochloride] | 370
Cl.Nc1c(Br)cc(Br)cc1CN[C@H]1CC[C@H](O)CC1 [Ambroxol hydrochloride] | 364
CCC1(c2ccccc2)C(=O)NCNC1=O [Primidone] | 346
NC(=O)N/N=C/c1ccc([N+](=O)[O-])o1 [Nitrofural] | 365
CCCCC(O)c1ccccc1 (centres unmarked) [Fenipentol] | 375
C=CCc1ccccc1OCC(O)CNC(C)C (centres unmarked) [Alprenolol hydrochloride] | 376
O=c1[nH]c(=O)n([C@H]2C[C@H](O)[C@@H](CO)O2)cc1I [Idoxuridine] | 359
Cc1onc(-c2ccccc2)c1C(=O)N[C@@H]1C(=O)N2[C@@H]1SC(C)(C)[C@@H]2C(=O)[O-].[Na+] [Oxacillin sodium] | 373
CC[N+](CC)(CC)CCOc1cccc(OCC[N+](CC)(CC)CC)c1OCC[N+](CC)(CC)CC [Gallamine triethiodide] | 363
COc1ccccc1OCC(O)CO (centres unmarked) [Guaifenesin] | 376
CCN(CC)CCNC(C(=O)OCCC(C)C)c1ccccc1.Cl.Cl (centres unmarked) [Camylofine chlorhydrate] | 342
CC(N)CCCC(C)(C)O (centres unmarked) [Heptaminol hydrochloride] | 362
CC(C)NCC(O)COc1cccc2[nH]ccc12 (centres unmarked) [Pindolol] | 331
N=C(N)N1CCc2ccccc2C1 [Debrisoquin sulfate] | 360
COC(=O)C1=C(C)NC(C)=C(C(=O)OCCN(C)Cc2ccccc2)C1c1cccc([N+](=O)[O-])c1 (centres unmarked) [Nicardipine hydrochloride] | 330
CC(CN(C)C)CN1c2ccccc2Sc2ccccc21.CC(CN(C)C)CN1c2ccccc2Sc2ccccc21.O=C(O)C(O)C(O)C(=O)O (centres unmarked) [Trimeprazine tartrate] | 354

Same assay, conditions: p-tau aggregation modulator screen of 1280-compound library; […]

Compound | ThS net change
COc1cc2c(c(OC)c1OC)-c1ccc(OC)c(=O)cc1[C@@H](NC(C)=O)CC2 [Colchicine] | 336
CCC(C)(CN(C)C)OC(=O)c1ccccc1.Cl (centres unmarked) [Amyleine hydrochloride] | 365
COc1cc2c(cc1OC)C(C)NCC2.Cl (centres unmarked) | 359
CC(=O)[C@@]12O[C@](C)(c3ccccc3)O[C@@H]1C[C@H]1[C@@H]3CCC4=CC(=O)CC[C@]4(C)[C@H]3CC[C@@]12C [Algestone acetophenide] | 336

Same assay, conditions: p-tau aggregation modulator screen of the compound library, ThS fluorescence net change

Compound | ThS net change
OCCOCCN1CCN(C2=Nc3ccccc3Sc3ccccc32)CC1 [Quetiapine hemifumarate] | 424
C#C[C@]1(O)CC[C@H]2[C@@H]3CCc4cc(O)ccc4[C@H]3CC[C@@]21C [Ethinylestradiol] | 451
CCCCC(=O)O[C@H]1CC[C@H]2[C@@H]3CCc4cc(O)ccc4[C@H]3CC[C@]12C [Estradiol Valerate] | 417
CCC1(c2ccccc2)NC(=O)N(C)C1=O (centres unmarked) [Mephenytoin] | 453
COc1ccccc1Oc1c(NS(=O)(=O)c2ccc(C(C)(C)C)cc2)nc(-c2ncccn2)nc1OCCO [Bosentan] | 453
Nc1ccc(S(=O)(=O)Nc2ccc(Cl)nn2)cc1 [Sulfachloropyridazine] | 413
COc1ccc(C[C@@H]2c3cc(OC)c(OC)cc3CC[N@+]2(C)CCC(=O)OCCCCCOC(=O)CC[N@@+]2(C)CCc3cc(OC)c(OC)cc3[C@H]2Cc2ccc(OC)c(OC)c2)cc1OC [Cisatracurium besylate] | 458
CN(C)CCn1nnnc1SCC1=C(C(=O)O)N2C(=O)[C@@H](NC(=O)Cc3csc(N)n3)[C@H]2SC1 [Cefotiam hydrochloride] | 423
CN(C/C=C/c1ccccc1)Cc1cccc2ccccc12 [Naftifine hydrochloride] | 539
CCN[C@H]1C[C@H](C)S(=O)(=O)c2sc(S(N)(=O)=O)cc21 [Dorzolamide hydrochloride] | 463
N#Cc1ccc(C(c2ccc(C#N)cc2)n2cncn2)cc1 [Letrozole] | 453
CCCC1C(=O)N2C(N(C)C)=Nc3ccc(C)cc3N2C1=O (centres unmarked) [Azapropazone] | 429
CN(Cc1cc(Br)cc(Br)c1N)C1CCCCC1 [Bromhexine hydrochloride] | 545
CC1(O)CCOC(=O)C1 (centres unmarked) [Mevalonic-D, L acid lactone] | 438
CS(=O)(=O)O.Cc1ccc2c(c1)c1c3n2CCNC3CCC1 (centres unmarked) [Pirlindole mesylate] | 461
CC(=O)OCC(=O)[C@@]12OC3(CCCC3)O[C@@H]1C[C@H]1[C@@H]3CCC4=CC(=O)C=C[C@]4(C)[C@@]3(F)[C@@H](O)C[C@@]12C [Amcinonide] | 477
CCCN(CCC)S(=O)(=O)c1ccc(C(=O)O)cc1 [Probenecid] | 416

Source: publication PMC7539012, “Hyperphosphorylated tau aggregation and cytotoxicity modulators screen identified prescription drugs linked to Alzheimer's disease and cognitive functions” (Scientific Reports, 2020)
